Assay [1] relates to Enterococcus faecium L4001. The assay is described as follows: Minimum inhibitory concentration (MIC), E. faecium L4001. It is filed as cell-based. The note with it: Enterococcus faecium. The procedure:
(§1) Determination of the Minimum Inhibitory Concentration (MIC)
(§2) The minimum inhibitory concentration (MIC) is the minimum concentration of an antibiotic with which the growth of a test microbe is inhibited over 18-24 h. The inhibitor concentration can in these cases be determined by standard microbiological methods (see, for example, The National Committee for Clinical Laboratory Standards. Methods for dilution antimicrobial susceptibility tests for bacteria that grow aerobically; approved standard-fifth edition. NCCLS document M7-A5 [ISBN 1-56238-394-9]. NCCLS, 940 West Valley Road, Suite 1400, Wayne, Pa. 19087-1898 USA, 2000). The MIC of the compounds of the invention is determined in the liquid dilution test on the 96-well microtitre plate scale. The bacterial microbes are cultivated in a minimal medium (18.5 mM Na2HPO4, 5.7 mM KH2PO4, 9.3 mM NH4Cl, 2.8 mM MgSO4, 17.1 mM NaCl, 0.033 μg/ml of thiamine hydrochloride, 1.2 μg/ml of nicotinic acid, 0.003 μg/ml of biotin, 1% glucose, 25 μg/ml of each proteinogenic amino acid with the exception of phenylalanine; [H.-P. Kroll; unpublished]) with addition of 0.4% BH broth (test medium). In the case of Enterococcus faecium L4001, heat-inactivated fetal calf serum (FCS; GibcoBRL, Germany) is added to the test medium in a final concentration of 10%. Overnight cultures of the test microbes are diluted to an OD578 of 0.001 (to 0.01 in the case of enterococci) in fresh test medium, and incubated 1:1 with dilutions of the test substances (1:2 dilution steps) in test medium (200 μl final volume). The cultures are incubated at 37° C. for 18-24 hours; enterococci in the presence of 5% CO2
(§3) The lowest substance concentration in each case at which no visible bacterial growth occurs any more is defined as the MIC.
(§4) Alternative Method for Determining the Minimum Inhibitory Concentration (MIC)
(§5) The minimum inhibitory concentration (MIC) is the minimum concentration of an antibiotic with which the growth of a test microbe is inhibited over 18-24 h. The inhibitor concentration can in these cases be determined by standard microbiological methods with modified medium in an agar dilution test (see, for example, The National Committee for Clinical Laboratory Standards. Methods for dilution antimicrobial susceptibility tests for bacteria that grow aerobically; approved standard-fifth edition. NCCLS document M7-A5 [ISBN 1-56238-394-9]. NCCLS, 940 West Valley Road, Suite 1400, Wayne, Pa. 19087-1898 USA, 2000). The bacterial microbes are cultivated on 1.5% agar plates which contain 20% defibrinated horse blood. The test microbes, which are incubated overnight on Columbia blood agar plates (Becton-Dickinson), are diluted in PBS, adjusted to a microbe count of about 5×10^5 microbes/ml and placed dropwise (1-3 μl) on test plates. The test substances comprise different dilutions of the test substances (1:2 dilution steps). The cultures are incubated at 37° C. in the presence of 5% CO2 for 18-24 hours.
(§6) The lowest substance concentration in each case at which no visible bacterial growth occurred any more is defined as the MIC and is reported in μg/ml.

Assay [2] relates to S. aureus 133. The assay is described as follows: Minimum inhibitory concentration (MIC), S. aureus 133. The class given is cell-based. The procedure: as §1, §2, §3, §4, §5, §6
Assay [3] concerns S. aureus T17. Briefly: Minimum inhibitory concentration (MIC), biphenomycin-resistant S. aureus T17. It is filed as cell-based. As to conditions: Staphylococcus aureus; biphenomycin-resistant S. aureus T17; read-out: MIC S. aureus T17. How it is done: as §1, §2, §3, §4, §5, §6
The S. aureus strain T17 is isolated in vivo. CFW1 mice are infected intraperitoneally with 4×10^7 S. aureus 133 cells per mouse. 0.5 h after the infection, the animals are treated intravenously with 50 mg/kg biphenomycin B. The kidneys are removed from the surviving animals on day 3 after the infection. After homogenization of the organs, the homogenates are plated out as described for RN4220Bi^R on antibiotic-free and antibiotic-containing agar plates and incubated at 37° C. overnight. […] About 20 of these colonies are tested for the biphenomycin B MIC, and a colony with a MIC of >50 μM is selected for further cultivation, and the strain is referred to as T17.

For assay [4], the target named is S. aureus 133 Translation. Briefly: S. aureus in vitro transcription-translation assay (firefly luciferase, S30 extract). The note with it: 50% inhibition of the translation of firefly luciferase. It is filed as biochemical. From the text:
In Vitro Transcription-Translation with S. aureus Extracts
Construction of an S. aureus luciferase Reporter Plasmid
In order to construct a reporter plasmid which can be used in an in vitro transcription-translation assay from S. aureus the plasmid pBESTluc (Promega Corporation, USA) is used. The E. coli tac promoter present in this plasmid in front of the firefly luciferase is replaced with the capA1 promoter with appropriate Shine-Dalgarno sequence from S. aureus. The primers CAPFor 5′-CGGCCAAGCTTACTC-[…] […]-3′ and CAPRev 5′-[…]-3′ are used for this. The primer CAPFor contains the capA1 promoter, the ribosome binding site and the 5′ region of the luciferase gene. After PCR using pBESTluc as template it is possible to isolate a PCR product which contains the firefly luciferase gene with the fused capA1 promoter. This is, after restriction with ClaI and HindIII, ligated into the vector pBESTluc which has likewise been digested with ClaI and HindIII. The resulting plasmid p1a can be replicated in E. coli and can be used as template in the S. aureus in vitro transcription-translation test.
Preparation of S30 Extracts from S. aureus
Six litres of BHI medium are inoculated with a 250 ml overnight culture of an S. aureus strain and allowed to grow at 37° C. until the OD600 nm is 2-4. The cells are harvested by centrifugation and washed in 500 ml of cold buffer A (10 mM Tris acetate, pH 8.0, 14 mM magnesium acetate, 1 mM DTT, 1 M KCl). After renewed centrifugation, the cells are washed in 250 ml of cold buffer A with 50 mM KCl, and the resulting pellets are frozen at −20° C. for 60 min. The pellets are thawed on ice in 30 to 60 min and taken up to a total volume of 99 ml in buffer B (10 mM Tris acetate, pH 8.0, 20 mM magnesium acetate, 1 mM DTT, 50 mM KCl). 1.5 ml portions of lysostaphin (0.8 mg/ml) in buffer B are introduced into 3 precooled centrifuge cups and mixed with 33 ml of the cell suspension each. The samples are incubated at 37° C., shaking occasionally, for 45 to 60 min, before 150 μl of a 0.5 M DTT solution are added. The lysed cells are centrifuged at 30 000×g and 4° C. for 30 min. The cell pellet is taken up in buffer B and then centrifuged again under the same conditions, and the collected supernatants are combined. The supernatants are centrifuged again under the same conditions, and 0.25 volumes of buffer C (670 mM Tris acetate, pH 8.0, 20 mM magnesium acetate, 7 mM Na3 phosphoenolpyruvate, 7 mM DTT, 5.5 mM ATP, 70 μM amino acids (complete from Promega), 75 μg of pyruvate kinase (Sigma, Germany))/ml are added to the upper ⅔ of the supernatant. The samples are incubated at 37° C. for 30 min. The supernatants are dialysed against 2 l of dialysis buffer (10 mM Tris acetate, pH 8.0, 14 mM magnesium acetate, 1 mM DTT, 60 mM potassium acetate) in a dialysis tube with a 3500 Da cut-off with one buffer change at 4° C. overnight. The dialysate is concentrated to a protein concentration of about 10 mg/ml by covering the dialysis tube with cold PEG 8000 powder (Sigma, Germany) at 4° C. The S30 extracts can be stored in aliquots at −70° C.
Determination of the IC50 in the S. aureus In Vitro Transcription-Translation Assay
The inhibition of protein biosynthesis of the compounds can be shown in an in vitro transcription-translation assay. The assay is based on the cell-free transcription and translation of firefly luciferase using the reporter plasmid p1a as template and cell-free S30 extracts obtained from S. aureus. The activity of the resulting luciferase can be detected by luminescence measurement.
The amount of S30 extract or plasmid p1a to be employed must be tested anew for each preparation in order to ensure an optimal concentration in the assay. 3 μl of the substance to be tested, dissolved in 5% DMSO, are provided in an MTP. Then […] of a suitably concentrated plasmid solution p1a are added. […]

The subject of assay [5] is S. aureus 133. The assay is described as follows: Systemic infection with S. aureus 133 (mouse sepsis model). The class given is in vivo, mouse (female CFW1). The note with it: i.p. infection, i.v. therapy 30 minutes after infection, survival recorded for 6 days. The procedure: Systemic Infection with S. aureus 133
The suitability of the compounds of the invention for the treatment of bacterial infections can be shown in various animal models. For this purpose, the animals are generally infected with a suitable virulent microbe and then treated with the compound to be tested, which is present in a formulation which is adapted to the particular therapy model.
For this purpose, S. aureus 133 cells are cultured overnight in BH broth (Oxoid, Germany). The overnight culture was diluted 1:100 in fresh BH broth and expanded for 3 hours. The bacteria which are in the logarithmic phase of growth are centrifuged and washed twice with buffered physiological saline solution. A cell suspension in saline solution with an extinction of 50 units is then adjusted in a photometer (Dr Lange LP 2W). After a dilution step (1:15), this suspension is mixed 1:1 with a 10% mucine suspension. 0.2 ml of this infection solution is administered i.p. per 20 g of mouse. This corresponds to a cell count of about 1-2×10^6 microbes/mouse. The i.v. therapy takes place 30 minutes after the infection. Female CFW1 mice are used for the infection experiment. The survival of the animals is recorded for 6 days. The animal model is adjusted so that untreated animals die within 24 h after the infection.

[6] abbreviates: L4001, read-out: MIC E. faecium L4001.
The mark [7] stands for this setting: Staphylococcus aureus, 133, read-out: MIC S. aureus 133.
Setting [8] is: E. faecium L4001, test medium with 10% FCS, read-out: MIC E. faecium L4001.
The mark [9] stands for this setting: Staphylococcus aureus, 133; read-out: MIC S. aureus 133.

The values that follow come from patent US20080300231A1, “Antibacterial amide macrocycles VI” (priority 2005, published 2008).

Values after ≈ are worked out from the molar mass of the structure shown. Structures can show the parent of a compound that is named as a salt. Where two headings read alike, the source gives them in different places.

For orientation: MIC means the lowest concentration found to suppress growth. A word on the IC50: it is the midpoint of a concentration-inhibition curve. A higher IC50 goes with weaker potency. Turning to `NCCC[C@@H]1NC(=O)[C@@H](N)Cc2cc(ccc2O)-c2ccc(O)c(c2)C[C@@H](C(=O)N2CCC[C@H]2C(=O)N[C@@H](CCCN)C(=O)NCCN)NC1=O` [Example 1, 1-{[(8S,11S,14S)-14-Amino-11-(3-aminopropyl)-5,17-dihydroxy-10,13-dioxo-9,12-diazatricyclo[14.3.1.1^2,6]henicosa-1(20),2(21),3,5,16,18-hexaen-8-yl]carbonyl}-L-prolyl-N-(2-aminoethyl)-L-ornithinamide tetrahydrochloride], the MIC in assay [1] (setting [6]) came out at 2 µg/mL; in assay [2] (setting [7]) it was 1 µg/mL; in assay [3], 4 µg/mL. For the same molecule, in assay [4], half-maximal inhibition (IC50) was put at 700 nM.

As for `NCCC[C@@H]1NC(=O)[C@@H](N)Cc2cc(ccc2O)-c2ccc(O)c(c2)C[C@@H](C(=O)N2CCC[C@H]2C(=O)N[C@@H](CCCN)C(=O)NCCN)NC1=O.O=C(O)C(F)(F)F.O=C(O)C(F)(F)F.O=C(O)C(F)(F)F.O=C(O)C(F)(F)F` [Example 2, 1-{[(8S,11S,14S)-14-Amino-11-(3-aminopropyl)-5,17-dihydroxy-10,13-dioxo-9,12-diazatricyclo[14.3.1.1^2,6]henicosa-1(20),2(21),3,5,16,18-hexaen-8-yl]carbonyl}-L-prolyl-N-(2-aminoethyl)-L-ornithinamide tetra(hydrotrifluoroacetate)], the “ED100 (therapeutic effect)” value in assay [5] is 1.25 mg/kg.

As for `CNCCN(CCN)C(=O)[C@@H]1Cc2cc(ccc2O)-c2ccc(O)c(c2)C[C@H](N)C(=O)N[C@@H](CCCN)C(=O)N1` [Example 3, (8S,11S,14S)-14-Amino-N-(2-aminoethyl)-11-(3-aminopropyl)-5,17-dihydroxy-N-[2-(methylamino)ethyl]-10,13-dioxo-9,12-diazatricyclo[14.3.1.1^2,6]henicosa-1(20),2(21),3,5,16,18-hexaene-8-carboxamide tetrahydrochloride], the results for the MIC in assay [1] (setting [6]), in assay [2] (setting [7]) and in assay [3] were 8 µg/mL, 2 µg/mL and 4 µg/mL, respectively. In assay [4], this molecule gave an IC50 of 800 nM.

`NCCC[C@@H]1NC(=O)[C@@H](N)Cc2cc(ccc2O)-c2ccc(O)c(c2)C[C@@H](C(=O)N(CCN)CCO)NC1=O` [Example 6]: the MIC amounted to 4 µg/mL (≈ 7.37 µM) in assay [1] (setting [8]), 2 µg/mL (≈ 3.69 µM) in assay [2] (setting [9]) and 4 µg/mL (≈ 7.37 µM) in assay [3]. For the same molecule, inhibition in assay [4] was half-maximal at 700 nM (IC50).

`NCCC[C@@H]1NC(=O)[C@@H](N)Cc2cc(ccc2O)-c2ccc(O)c(c2)C[C@@H](C(=O)N(CCN)CC(O)CN)NC1=O` (stereo partly drawn) [Example 8]: the MIC in assay [1] (setting [8]) is 16 µg/mL (≈ 28 µM); in assay [2] (setting [9]) it was 1 µg/mL (≈ 1.75 µM); in assay [3], 4 µg/mL (≈ 7 µM). In assay [4], the IC50 stood at 250 nM.

As for `NCCC[C@@H]1NC(=O)[C@@H](N)Cc2cc(ccc2O)-c2ccc(O)c(c2)C[C@@H](C(=O)N(CCN)CC2CCCCN2)NC1=O` (stereo partly drawn) [Example 9], the values for the MIC in assay [1] (setting [8]), in assay [2] (setting [9]) and in assay [3] were 32 µg/mL (≈ 53.7 µM), 4 µg/mL (≈ 6.71 µM) and 2 µg/mL (≈ 3.36 µM), respectively. Moreover, the IC50 in assay [4] is 330 nM.
